Experimental data: article PMC10388327, “Dual Piperidine-Based Histamine H3 and Sigma-1 Receptor Ligands in the Treatment of Nociceptive and Neuropathic Pain” (Journal of Medicinal Chemistry, 2023)
Structures can show the parent of a compound that is named as a salt. Where two headings read alike, the source gives them in different places.

What was measured:
[1] = pKa determination by potentiometric titration; type: physicochemical; details: for pKa: aqueous solution, experimental, potentiometric titration
Experimental: In addition, we tested the amino alcohol fragments of these compounds to carefully monitor the influence of individual protonated nitrogen atoms on the obtained pKa values (Figure 4). […] Based on a previously modified potentiometric procedure,[27],[28] a series of titrations were performed, and the pKa values were determined using the Kostrowicki and Liwo algorithm.[29],[30] […] That explains the surprising result of free base crystallization attempts where iodide salt was obtained instead of the neutral form. On the other hand, in the same environment, KSK94 exists in two forms: the monoprotonated form [HL^+] (20.56%) and the free ligand [L] (77.72%, Figure 5). […] KSK68 can be characterized as a basic ligand with pKa1 = 4.9 (pyridine N) and pKa2 = 8.4 (piperidine N). The pKa values are consistent with those determined by the same procedure for the corresponding amino alcohol 3-(4-(pyridin-4-yl)piperidin-1-yl)propan-1-ol (Figure 4). […] A similarly low pKa2 value for the N7 piperazine nitrogen atom was also determined for the corresponding amino alcohol 3-(4-(pyridin-4-yl)piperazin-1-yl)propan-1-ol (Figure 4), which is in agreement with the value obtained for 1-phenyl-4-methyl piperazine reported in the literature.[31] […] The lowest value was determined for 4-nitrophenyl, and the highest was for 2-methylphenyl derivatives.[32]
The potentiometric microtitration was performed in a thermostated 20 mL cell using a CerkoLab microtitration unit fitted with a pH electrode (Hydromet ERH-13-6). The electrode was calibrated with the use of buffer solutions: pH = 4.00, 7.00, and 10.00. Titrant T (0.1 M KOH) was standardized according to the general analytical procedure and protected from carbon dioxide. Double distilled water with a conductivity of about 0.18 mS/cm was used to prepare all aqueous solutions. DMSO (HPLC grade, 99.5%) was supplied by Sigma Aldrich. The concentration of the titrant solution (D) was 0.0025–0.005 M. The solubilization procedure was follows: The appropriate amount of KSK compound was dissolved in 1 mL 0.1 M HCl and 1 mL DMSO to prepare a 25 mL stock solution. The developed solubilization system can be recommended for poorly soluble derivatives. The analytical procedure was a follows: volume V0 = 4.5 mL of titrant D was titrated with 0.1 M titrant T using the CerkoLab System equipped with a 5 mL syringe pump.

[2] = target: T1, human recombinant histamine H3R (Homo sapiens, UniProt Q9Y5N1); test: hH3R radioligand binding ([3H]Nα-methylhistamine depletion assay); details: read-out: hH3R Ki [nM] x̄ [CI 95%]; mean [CI 95%]; HEK-293 cells
T1 construct: expressed in transfected cells

sigma-2 receptor (σ2R) = target: T2, sigma-2 receptor (σ2R) (Rattus norvegicus, UniProt Q5U3Y7); test: σ2R radioligand binding ([3H]DTG); details: read-out: σ2R Ki [nM] x̄ [CI 95%]; mean [CI 95%]
T2 construct: The thawed membrane preparation of rat liver was incubated; from tissue; host or cells: Sprague-Dawley rat liver membranes
T2 sequence (Q5U3Y7 1-176): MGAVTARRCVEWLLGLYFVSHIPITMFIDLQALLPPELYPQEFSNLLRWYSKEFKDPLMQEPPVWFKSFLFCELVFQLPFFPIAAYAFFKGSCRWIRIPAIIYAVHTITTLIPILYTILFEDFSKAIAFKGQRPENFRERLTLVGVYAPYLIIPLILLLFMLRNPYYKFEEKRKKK

sigma-1 receptor (σ1R) [3] = test: σ1R radioligand binding ([3H](+)-pentazocine); parameters: species or system guinea pig; details: ratio of σ2R Ki to σ1R Ki
sigma-1 receptor (σ1R) [4] = target: T3, sigma-1 receptor (σ1R) (Cavia porcellus, UniProt Q60492); test: σ1R radioligand binding ([3H](+)-pentazocine); parameters: species or system guinea pig; details: read-out: σ1R Ki [nM] x̄ [CI 95%]; mean [CI 95%]
T3 construct: The thawed membrane preparation of the guinea pig brain cortex was incubated; from tissue; host or cells: male Dunkin-Hartley guinea pig brain cortex membranes

[5] = parallel artificial membrane permeability assay (PAMPA); type: in vitro ADME; details: 100 μM in PBS pH 7.4, RT, read-out: Pe (permeability coefficient)
mice = test: loperamide-induced antinociception (paw pressure, struggle response latency); type: in vivo, Female CD1 mice; details: for reversal of potentiation of loperamide-induced antinociception by S1RA and 12: PRE-084 75 μg i.pl., naloxone-methiodide 2 mg/kg s.c.
[6] = Figure 5, species distribution from titration curves
[7] = aqueous solution at physiological pH

T3 sequence (Q60492 whole entry): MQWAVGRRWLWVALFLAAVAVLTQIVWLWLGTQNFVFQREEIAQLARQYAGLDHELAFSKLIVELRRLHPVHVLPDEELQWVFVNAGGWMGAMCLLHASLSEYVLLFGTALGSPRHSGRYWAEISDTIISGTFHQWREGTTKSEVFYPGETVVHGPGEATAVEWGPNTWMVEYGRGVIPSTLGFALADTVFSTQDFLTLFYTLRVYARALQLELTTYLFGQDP
T1 sequence (Q9Y5N1 whole entry): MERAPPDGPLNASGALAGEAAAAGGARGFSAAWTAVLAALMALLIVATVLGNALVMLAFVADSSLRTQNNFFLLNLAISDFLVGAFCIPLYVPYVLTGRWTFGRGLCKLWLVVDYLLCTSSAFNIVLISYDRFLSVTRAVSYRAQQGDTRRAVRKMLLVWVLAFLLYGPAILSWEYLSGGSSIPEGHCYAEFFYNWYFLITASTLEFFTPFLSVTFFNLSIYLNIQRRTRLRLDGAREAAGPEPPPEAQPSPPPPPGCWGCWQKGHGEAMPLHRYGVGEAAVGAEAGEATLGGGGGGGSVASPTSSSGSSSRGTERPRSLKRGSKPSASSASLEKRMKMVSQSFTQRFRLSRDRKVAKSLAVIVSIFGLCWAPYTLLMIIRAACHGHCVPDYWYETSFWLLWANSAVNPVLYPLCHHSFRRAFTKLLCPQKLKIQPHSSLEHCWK

With `N#Cc1ccc(-c2ccc(OCCCN3CCN(c4ccncc4)CC3)cc2)cc1` [KSK94] the “pK of equilibrium H2L+2 = H+ + HL+” value [1, 6] was 6.25, the “pK of equilibrium HL+ = H+ + L0” value [1, 6] was 6.65 and the “free ligand [L]” value [1, 7] was 77.72%. For the same compound, the “monoprotonated form [HL+]” value [1, 7] was 20.56%, the pKa ([1]; read-out: pKa1) was 6.25 and the pKa ([1]; read-out: pKa2) was roughly 1. For the same compound, the pKa ([1]; read-out: pKa3) was 6.65.

In the case of `c1ccc(Oc2ccc(OCCCN3CCC(c4ccncc4)CC3)cc2)cc1` [Compound 13, 4-(1-(3-(4-Phenoxyphenoxy)propyl)piperidin-4-yl)pyridine Oxalate], the Ki [2] is reported as 24.2 nM, the Ki (sigma-2 receptor (σ2R)) is reported as 4 nM and the σ2/σ1 ratio (sigma-1 receptor (σ1R) [3]) is reported as 0.7. For the same compound, the Ki (sigma-1 receptor (σ1R) [4]) was 5.6 nM.

`OCCCN1CCCCC1` [3-(piperidin-1-yl)propan-1-ol, reference compound] gave a pKa ([1]; read-out: pKa) of 9.73.

In the case of `CCN1CCCC1CNC(=O)c1cc(S(N)(=O)=O)ccc1OC` (stereo not drawn) [sulpiride, reference compound], the Papp at 5 h, 100 µM [5] is reported as 0.05 ×10⁻⁶ cm/s.

With `CC1CCCN(CCCOc2ccc(-c3ccccc3)cc2)C1` (stereo not drawn) [Compound 1, 1-(3-([1,1′-Biphenyl]-4-yloxy)propyl)-3-methylpiperidine Oxalate] the Ki [2] was 31 nM, the Ki (sigma-2 receptor (σ2R)) was 17 nM and the σ2/σ1 ratio (sigma-1 receptor (σ1R) [3]) was 11.3. The Ki (sigma-1 receptor (σ1R) [4]) was 1.5 nM.

In the case of `c1ccc(Nc2ccc(OCCCN3CCC(c4ccncc4)CC3)cc2)cc1` [Compound 14, N-Phenyl-4-(3-(4-(pyridin-4-yl)piperidin-1-yl)propoxy)aniline Oxalate], the Ki [2] is reported as 69 nM, the Ki (sigma-2 receptor (σ2R)) is reported as 29 nM and the σ2/σ1 ratio (sigma-1 receptor (σ1R) [3]) is reported as 8.8. The Ki (sigma-1 receptor (σ1R) [4]) was 3.3 nM.

In the case of `N#Cc1ccc(-c2ccc(OCCCN3CCCCC3)cc2)cc1.O=C(O)C(=O)O` [Compound 5, 4′-(3-(Piperidin-1-yl)propoxy)-[1,1′-biphenyl]-4-carbonitrile Oxalate], the Ki (sigma-2 receptor (σ2R)) is reported as 47 nM, the σ2/σ1 ratio (sigma-1 receptor (σ1R) [3]) is reported as 1.7 and the Ki (sigma-1 receptor (σ1R) [4]) is reported as 28 nM.

In the case of `CN(C)C(=O)C(CCN1CCC(O)(c2ccc(Cl)cc2)CC1)(c1ccccc1)c1ccccc1` [loperamide], the “effect of loperamide alone on struggle response latency” value (mice; 4 mg/kg s.c.) is reported as “minimal (nonsignificant) increase in the struggle response latency”.

`CC(C)(C)c1ccc(OCCCCN2CCN(c3cnccn3)CC2)cc1` [Compound 16, 2-(4-(4-(4-(tert-Butyl)phenoxy)butyl)piperazin-1-yl)pyrazine Oxalate] showed a Ki (sigma-2 receptor (σ2R)) of 27 nM, a σ2/σ1 ratio (sigma-1 receptor (σ1R) [3]) of 3.6 and a Ki (sigma-1 receptor (σ1R) [4]) of 7.6 nM.

Work on `c1ccc(Cc2ccc(OCCCN3CCCCC3)cc2)cc1` [Compound 8, 1-(3-(4-Benzylphenoxy)propyl)piperidine Oxalate] yielded a Ki (sigma-2 receptor (σ2R)) of 47 nM, a σ2/σ1 ratio (sigma-1 receptor (σ1R) [3]) of 8.5 and a Ki (sigma-1 receptor (σ1R) [4]) of 5.5 nM.

Work on `CC1CCN(CCCOc2ccc(-c3ccccc3)cc2)CC1` [Compound 2, 1-(3-([1,1′-Biphenyl]-4-yloxy)propyl)-4-methylpiperidine Oxalate] yielded a Ki [2] of 10.3 nM, a Ki (sigma-2 receptor (σ2R)) of 16 nM and a σ2/σ1 ratio (sigma-1 receptor (σ1R) [3]) of 6.7. For the same compound, the Ki (sigma-1 receptor (σ1R) [4]) was 2.4 nM.

For `Cl.O=C(OCCN1CCOCC1)C1(c2ccccc2)CCCCC1` [PRE-084, 2-[4-morpholinethyl]1-phenylcyclohexanecarboxylate hydrochloride], the “reversal of potentiation of loperamide-induced antinociception by S1RA and 12” value (mice) was “markedly reverse the effect of these compounds on loperamide-induced antinociception”.

For `OCCCN1CCN(c2ccncc2)CC1` [3-(4-(pyridin-4-yl)piperazin-1-yl)propan-1-ol, reference compound], the pKa ([1]; read-out: pKa1) was 6.1, the pKa ([1]; read-out: pKa2) was 1 and the pKa ([1]; read-out: pKa3) was 8.82.

For `c1ccc(Cc2ccc(OCCCN3CCC(c4ccncc4)CC3)cc2)cc1` [Compound 15, 4-(1-(3-(4-Benzylphenoxy)propyl)piperidin-4-yl)pyridine Oxalate], the Ki [2] was 76.1 nM, the Ki (sigma-2 receptor (σ2R)) was 9.9 nM and the σ2/σ1 ratio (sigma-1 receptor (σ1R) [3]) was 3.5. The Ki (sigma-1 receptor (σ1R) [4]) was 2.8 nM.

Compound `OCCCN1CCC(c2ccncc2)CC1` [3-(4-(pyridin-4-yl)piperidin-1-yl)propan-1-ol, reference compound] has a pKa ([1]; read-out: pKa1) of 4.91 and a pKa ([1]; read-out: pKa2) of 8.84.

Compound `c1ccc(-c2ccc(OCCCN3CCCC3)cc2)cc1` [Compound 4, 1-(3-([1,1′-Biphenyl]-4-yloxy)propyl)pyrrolidine Oxalate] has a Ki [2] of 19.5 nM, a Ki (sigma-2 receptor (σ2R)) of 65 nM and a σ2/σ1 ratio (sigma-1 receptor (σ1R) [3]) of 2.7. The Ki (sigma-1 receptor (σ1R) [4]) was 24 nM.

For `OCCCN1CCNCC1` [3-(piperazin-1-yl)propan-1-ol, reference compound], the pKa ([1]; read-out: pKa1) was 4.52 and the pKa ([1]; read-out: pKa2) was 9.14.

In the case of `c1ccc(Oc2ccc(OCCCN3CCCCC3)cc2)cc1` [Compound 6, 1-(3-(4-Phenoxyphenoxy)propyl)piperidine Oxalate], the Ki [2] is reported as 2.7 nM, the Ki (sigma-2 receptor (σ2R)) is reported as 103 nM and the σ2/σ1 ratio (sigma-1 receptor (σ1R) [3]) is reported as 5.7. For the same compound, the Ki (sigma-1 receptor (σ1R) [4]) was 18 nM.

For `C=CC[N+]1(C)CC[C@]23c4c5ccc(O)c4O[C@H]2C(=O)CC[C@@]3(O)[C@H]1C5` (stereo partly drawn) [naloxone-methiodide], the “reversal of potentiation of loperamide-induced antinociception by S1RA and 12” value (mice) was “the effect of S1RA and 12 was also reversed”.

`c1ccc(-c2ccc(OCCCCN3CCCCC3)cc2)cc1` [Compound 9, 1-(4-([1,1′-Biphenyl]-4-yloxy)butyl)piperidine Oxalate] gave a Ki [2] of 22 nM, a Ki (sigma-2 receptor (σ2R)) of 33 nM and a σ2/σ1 ratio (sigma-1 receptor (σ1R) [3]) of 0.3. The Ki (sigma-1 receptor (σ1R) [4]) was 95 nM.
